Reference: publication PMC10257517 (European Journal of Medicinal Chemistry, 2023)

Assays:
[1] = biological target: M^pro-SARS-CoV-2 (3CL Protease) (Severe acute respiratory syndrome coronavirus 2, UniProt P0DTD1); assay: M^pro-SARS-CoV-2 inhibition, 3CL Protease; type: biochemical
[2] = tested on: SARS-CoV-2 (hCoV-19/Egypt/NRC-03/2020); type: cell-based; settings: for Selectivity index (SI): SI=CC50/IC50
MTT cytotoxicity assay = type: cell-based; settings: African green monkey, VERO-E6 cells
SARS-CoV-2 = settings: read-out: EC50 (Vero-E6 cell); against SARS-CoV-2, Vero-E6 cell; cited from earlier work
VERO-E6 cells = assay: MTT cytotoxicity assay; type: cell-based; settings: MTT, 24 h

| Compound | IC50 [1] | Selectivity index (SI) [2] | CC50 at 24 h (MTT cytotoxicity assay) | EC50 (SARS-CoV-2) | IC50 [2] | CC50 (VERO-E6 cells) |
| --- | --- | --- | --- | --- | --- | --- |
| CCOP(=O)(OCC)N1C/C(=C\c2ccccc2)C(=O)C2(C1)C(c1ccccc1)CN(C)C21C(=O)Nc2ccc(Cl)cc21 (stereo not shown) [Compound 6b, Diethyl (E)-(5″-benzylidene-5-chloro-1′-methyl-2,4″-dioxo-4′-phenyldispiro[indoline-3,2′-pyrrolidine-3′,3″-piperidin]-1″-yl)phosphonate] | 9.6 ± 0.66 µM | 2.12 | 22 µM | – | – | – |
| CCOP(=O)(OCC)N1C/C(=C\c2ccc(F)cc2)C(=O)C2(C1)C(c1ccc(F)cc1)CN(C)C21C(=O)Nc2ccc(Cl)cc21 (stereo not shown) [Compound 6d, Diethyl (E)-[5-chloro-5''-(4-fluorobenzylidene)-4'-(4-fluorophenyl)-1′-methyl-2,4″-dioxodispiro[indoline-3,2′-pyrrolidine-3′,3″-piperidin]-1″-yl]phosphonate] | 42.8 ± 2.53 µM | 1.39 | 18.8 µM | – | – | – |
| CCOP(=O)(OCC)N1C/C(=C\c2ccc(Br)cc2)C(=O)C2(C1)C(c1ccc(Br)cc1)CN(C)C21C(=O)Nc2ccccc21 (stereo not shown) [Compound 6g, Diethyl (E)-[5''-(4-bromobenzylidene)-4'-(4-bromophenyl)-1′-methyl-2,4″-dioxodispiro[indoline-3,2′-pyrrolidine-3′,3″-piperidin]-1″-yl]phosphonate] | 15.6 ± 1.02 µM | 2.29 | 20.3 µM | – | – | – |
| COc1cccc2[nH]c(C(=O)N[C@@H](CC(C)C)C(=O)N[C@@H](C[C@@H]3CCNC3=O)C(=O)CO)cc12 [PF-00835231] | – | – | – | ≤ 0.23 µM | – | – |
| Diethyl (E)-(5″-benzylidene-1′-methyl-2,4″-dioxo-4′-phenyldispiro[indoline-3,2′-pyrrolidine-3′,3″-piperidin]-1″-yl)phosphonate [Compound 6a] | – | – | – | – | 88.6 µM | 73.1 µM |
| Diethyl (E)-[1′-methyl-2,4″-dioxo-4'-(thiophen-2-yl)-5''-(thiophen-2-ylmethylene)dispiro[indoline-3,2′-pyrrolidine-3′,3″-piperidin]-1″-yl]phosphonate [Compound 6k] | – | – | – | – | 106 µM | 49.9 µM |
| Diethyl (E)-[1′-methyl-5''-(4-methylbenzylidene)-2,4″-dioxo-4'-(p-tolyl)dispiro[indoline-3,2′-pyrrolidine-3′,3″-piperidin]-1″-yl]phosphonate [Compound 6i] | – | – | – | – | 35.2 µM | 87 µM |
| Diethyl (E)-[5''-(4-chlorobenzylidene)-4'-(4-chlorophenyl)-1′-methyl-2,4″-dioxodispiro[indoline-3,2′-pyrrolidine-3′,3″-piperidin]-1″-yl]phosphonate [Compound 6e] | – | – | – | – | 340 µM | 9.83 µM |
| Diethyl (E)-[5''-(4-fluorobenzylidene)-4'-(4-fluorophenyl)-1′-methyl-2,4″-dioxodispiro[indoline-3,2′-pyrrolidine-3′,3″-piperidin]-1″-yl]phosphonate [Compound 6c] | – | – | – | – | 85.8 µM | 126 µM |
| Diethyl (E)-[5''-(4-methoxybenzylidene)-4'-(4-methoxyphenyl)-1′-methyl-2,4″-dioxodispiro[indoline-3,2′-pyrrolidine-3′,3″-piperidin]-1″-yl]phosphonate [Compound 6h] | – | – | – | – | 46.7 µM | 38.3 µM |
| Diethyl (E)-[5-chloro-1′-methyl-2,4″-dioxo-4'-(thiophen-2-yl)-5''-(thiophen-2-ylmethylene)dispiro[indoline-3,2′-pyrrolidine-3′,3″-piperidin]-1″-yl]phosphonate [Compound 6l] | – | – | – | – | 578 µM | 23.7 µM |
| Diethyl (E)-[5-chloro-1′-methyl-5''-(4-methylbenzylidene)-2,4″-dioxo-4'-(p-tolyl)dispiro[indoline-3,2′-pyrrolidine-3′,3″-piperidin]-1″-yl]phosphonate [Compound 6j] | – | – | – | – | 21.7 µM | 40.1 µM |
| Diethyl (E)-[5-chloro-5''-(4-chlorobenzylidene)-4'-(4-chlorophenyl)-1′-methyl-2,4″-dioxodispiro[indoline-3,2′-pyrrolidine-3′,3″-piperidin]-1″-yl]phosphonate [Compound 6f] | – | – | – | – | 7.26 µM | 10 µM |
